# Source: publication PMC10222839, “Development of Novel Small-Molecule Activators of Pyruvate Kinase Muscle Isozyme 2, PKM2, to Reduce Photoreceptor Apoptosis” (Pharmaceuticals, 2023)
# Columns and labels:
# [1] = molecular target: T1, human recombinant PKM2 (Homo sapiens, UniProt P14618); assay: Pyruvate kinase enzyme-coupled (LDH/NADH) assay with recombinant PKM2; type: biochemical; conditions: for AC50: recombinant human PKM2, n = 3, best-fit value ± std. error; for Emax: recombinant human PKM2, n = 3, normalized to DMSO-treated enzyme, read-out: Recombinant PKM2 Max Activation
# T1 construct: purchased Sigma SAE0021
# T1 sequence (P14618 whole entry): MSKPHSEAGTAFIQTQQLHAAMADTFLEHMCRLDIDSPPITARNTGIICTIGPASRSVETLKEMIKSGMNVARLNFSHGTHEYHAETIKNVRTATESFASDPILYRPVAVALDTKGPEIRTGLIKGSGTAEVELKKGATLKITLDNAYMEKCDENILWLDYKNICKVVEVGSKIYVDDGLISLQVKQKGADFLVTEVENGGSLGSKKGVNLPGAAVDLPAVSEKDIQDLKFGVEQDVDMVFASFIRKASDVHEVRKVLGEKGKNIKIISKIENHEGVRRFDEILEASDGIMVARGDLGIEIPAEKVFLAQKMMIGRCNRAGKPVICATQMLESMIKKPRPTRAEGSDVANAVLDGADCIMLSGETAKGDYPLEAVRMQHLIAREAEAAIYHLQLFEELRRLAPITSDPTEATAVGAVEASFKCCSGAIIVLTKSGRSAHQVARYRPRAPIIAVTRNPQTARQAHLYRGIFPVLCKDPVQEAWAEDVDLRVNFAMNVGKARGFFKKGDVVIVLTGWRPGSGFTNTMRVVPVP
# Experimental: (§1) Recombinant Enzyme. An enzyme-coupled assay that measures the depletion of NADH via absorbance at 340 nm and uses lactate dehydrogenase (LDH) was employed to determine the activity of pyruvate kinase (PK). To determine the AC50 (concentration of activator necessary to achieve half-maximal activation) of the different small molecules with PKM2, assays were conducted in a 96-well format using 200 μL/well assay volume with 10 nM human recombinant PKM2 (Sigma, St. Louis, MO, USA, Cat No. SAE0021) or PKM1 (Sigma, […], Cat No. SRP0415), differing concentrations of activator, 0.5 mM PEP, 1 mM ADP, 0.2 mM NADH, and 8 U of LDH in a buffer of 50 mM Tris-HCl (pH 7.4), 100 mM KCl, and 5 mM MgCl2 as previously described. A SPECTROstar Omega plate reader (BMG LABTECH Inc., Cary, NC, USA) monitored absorbance at 340 nm. The MARS software suite was utilized to determine initial velocities. Data were normalized to DMSO (dimethyl sulfoxide)-treated enzyme activity, as previously described.
# [2] = Aqueous solubility (Eurofins Panlabs, HPLC-UV/Vis); type: physicochemical; conditions: aqueous buffer, kinetic from dmso stock; PBS, pH 7.4, 24 h, room temperature (Table 1)
# Experimental: (§2) In brief, each compound was tested at a concentration of 200 μM in PBS, pH 7.4, and room temperature. […] The area of the principal peak in a calibration standard for each compound (200 μM) in organic solvent (60/40 v/v% methanol: water) was compared to the area of the corresponding peak in the PBS sample [42]. Compounds 16–21 underwent solubility testing at Analiza (Cleveland, OH, USA), a contract research organization. Five hundred microliters of PBS, pH 7.4 was added to each amount of compound provided. The samples were vortexed briefly and then placed on a rotary shaker at 200 RPM for 24 h at ambient temperature. Thereafter, the samples were vacuum filtered through a 0.45-micron membrane, and the filtrates were injected into a nitrogen detector for quantification. The nitrogen detector was calibrated using standards, and the filtrates were quantitated based on the calibration curve.
# [3] = molecular target: T2, pyruvate kinase (PK) activity in 661W cells (Mus musculus, UniProt P52480); assay: PK activity in 661W cell lysates after 2 h incubation with activator; type: cell-based; conditions: for AC50: n = 3; for Emax: n = 3, read-out: 661W Cells Max Activation
# T2 construct: endogenous in cells; host or cells: 661W photoreceptor-like cells
# T2 sequence (P52480 whole entry): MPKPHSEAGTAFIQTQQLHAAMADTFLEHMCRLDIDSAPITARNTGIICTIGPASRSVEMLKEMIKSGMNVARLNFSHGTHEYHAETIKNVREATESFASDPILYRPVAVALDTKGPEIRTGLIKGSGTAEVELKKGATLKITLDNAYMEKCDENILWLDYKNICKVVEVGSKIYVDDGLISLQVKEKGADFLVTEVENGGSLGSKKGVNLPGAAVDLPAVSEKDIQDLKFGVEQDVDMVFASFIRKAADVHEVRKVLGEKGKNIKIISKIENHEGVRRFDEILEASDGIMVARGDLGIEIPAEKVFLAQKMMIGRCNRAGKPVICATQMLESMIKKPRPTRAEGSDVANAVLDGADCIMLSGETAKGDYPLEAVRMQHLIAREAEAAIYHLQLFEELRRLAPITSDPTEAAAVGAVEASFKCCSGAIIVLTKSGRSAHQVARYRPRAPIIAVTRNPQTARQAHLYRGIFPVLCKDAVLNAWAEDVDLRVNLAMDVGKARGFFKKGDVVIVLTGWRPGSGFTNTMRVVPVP
# Experimental: The potency and efficacy of each compound, 1 through 5, was assessed with recombinant human PKM2 using an enzyme-coupled assay that uses lactate dehydrogenase and measures the reduction in NADH via absorbance at 340 nm. […] To assess the ability of this pyridazinoindolone series of compounds to cross cellular membranes and increase PK activity, we utilized 661W cells, which are immortalized photoreceptor-like cells that express cone markers.
# Cell culture. Next, 661W cells were incubated with either DMSO or different concentrations of small-molecule PKM2 activator for 2 h, lysed and homogenized in RIPA Lysis and Extraction Buffer (Thermo Fisher, Waltham, MA, USA, Cat No. 89900) with protease inhibitors (Complete-Mini, Roche Diagnostics, Indianapolis, IN, USA), and centrifuged at 10,000 rpm for 10 min to remove cellular debris. The supernatant (4–8 μL) was then used to assess the pyruvate kinase activity as described above. The total protein content was determined using the Pierce BCA protein assay kit (Thermo Fisher, Waltham, MA, USA, Cat No. 23225) with the Pierce™ Bovine Serum Albumin Standard Pre-Diluted Set (Thermo Fisher, Waltham, MA, USA, Cat No. 23208) and used to normalize activity as described previously.
# [4] = Aqueous solubility (Analiza, nitrogen detector); type: physicochemical; conditions: aqueous buffer, thermodynamic from solid; PBS, pH 7.4, 24 h, ambient temperature (Table 3)
# Experimental: as §2
# [5] = molecular target: T3, pyruvate kinase (PK) activity in rat retina (Rattus norvegicus, UniProt P11980); assay: PK activity in rat retina after intravitreal injection; type: in vivo; conditions: intravitreal injection in rats
# T3 construct: the retina from each rat eye was dissected from the RPE-choroid, homogenized, and lysed; from tissue; host or cells: retina of adult Brown-Norway rats
# T3 sequence (P11980 1-531 isoform P11980-2): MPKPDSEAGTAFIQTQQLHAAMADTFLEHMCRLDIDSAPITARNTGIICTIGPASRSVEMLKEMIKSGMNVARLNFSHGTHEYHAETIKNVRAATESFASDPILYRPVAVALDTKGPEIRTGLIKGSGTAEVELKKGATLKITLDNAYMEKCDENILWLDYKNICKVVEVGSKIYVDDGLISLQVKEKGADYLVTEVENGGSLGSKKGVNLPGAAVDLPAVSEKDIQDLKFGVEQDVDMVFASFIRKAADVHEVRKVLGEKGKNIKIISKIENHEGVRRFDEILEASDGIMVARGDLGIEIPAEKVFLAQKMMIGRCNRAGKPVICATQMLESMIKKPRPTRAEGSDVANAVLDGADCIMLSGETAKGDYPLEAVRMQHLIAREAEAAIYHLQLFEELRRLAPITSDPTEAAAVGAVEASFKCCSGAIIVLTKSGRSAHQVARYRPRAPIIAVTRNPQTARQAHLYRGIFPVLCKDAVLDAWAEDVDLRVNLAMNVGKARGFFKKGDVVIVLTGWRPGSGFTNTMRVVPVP
# Experimental: The intravitreal injection of medications has revolutionized how numerous retinal diseases are treated and are ever-increasing in ophthalmic clinical practice. Therefore, to assess the ability of these small molecules to activate PK in vivo in the rat retina, we utilized this well-accepted drug delivery method. Two microliters of each respective compound at 850 μM or DMSO were intravitreally injected into rat eyes. The vitreous volume of the rat eye was assumed to be 15 μL, giving a final intravitreal concentration of approximately 100 μM for each compound after injection. Retinas were harvested four hours after injection, lysed, and assayed for PK activity as previously described. The eyes treated with DMSO served as the control upon which PK activation was based.
# (§3) Two microliters of each respective compound at 8.5 μM (final vitreous concentration of 1 μM) or DMSO was intravitreally injected into rat eyes, and the PK activity was assessed four hours later.
# Animals. Intravitreal injections of various small-molecule PKM2 activators or vehicle (DMSO) were performed in Brown-Norway adult rats. The rats were anesthetized with ketamine (90 mg/mL) and xylazine (10 mg/mL) and their pupils dilated with topical phenylephrine (2.5%) and tropicamide (1%) as described previously. A sclerotomy was created with a 25-gauge microvitreoretinal blade (Walcott Rx Products, Ocean View, NJ, USA) just posterior to the limbus. A blunt 35-gauge cannula was inserted through this sclerotomy into the vitreous cavity to deliver 2 μL of different concentrations of small-molecule activator or DMSO. This injection volume produces minimal reflux with adequate reproducibility. Fifteen microliters of vitreous volume was assumed in rats to calculate the intravitreal concentrations of the compound after injection. As we have previously described, left eyes were treated with small-molecular activator, while right eyes were treated with DMSO, which served as the control upon which pyruvate kinase activation was based. Four hours later, the retina from each rat eye was dissected from the RPE-choroid, homogenized, and lysed in RIPA Lysis and Extraction Buffer with protease inhibitors. The pyruvate kinase (PK) activity assay, as described above, was performed using 4 to 8 microliters of rat retinal lysate, similar to what we and others have previously described. Analogous to the cell culture assays, the total protein of the lysate was used to normalize pyruvate kinase activity.
# [6] = molecular target: T4, recombinant PKM1 (Homo sapiens, UniProt P14618); assay: Pyruvate kinase enzyme-coupled assay with recombinant PKM1; type: biochemical; conditions: increasing concentrations (Figure 6b)
# T4 construct: purchased Sigma SRP0415
# T4 sequence (P14618 1-531 isoform P14618-2): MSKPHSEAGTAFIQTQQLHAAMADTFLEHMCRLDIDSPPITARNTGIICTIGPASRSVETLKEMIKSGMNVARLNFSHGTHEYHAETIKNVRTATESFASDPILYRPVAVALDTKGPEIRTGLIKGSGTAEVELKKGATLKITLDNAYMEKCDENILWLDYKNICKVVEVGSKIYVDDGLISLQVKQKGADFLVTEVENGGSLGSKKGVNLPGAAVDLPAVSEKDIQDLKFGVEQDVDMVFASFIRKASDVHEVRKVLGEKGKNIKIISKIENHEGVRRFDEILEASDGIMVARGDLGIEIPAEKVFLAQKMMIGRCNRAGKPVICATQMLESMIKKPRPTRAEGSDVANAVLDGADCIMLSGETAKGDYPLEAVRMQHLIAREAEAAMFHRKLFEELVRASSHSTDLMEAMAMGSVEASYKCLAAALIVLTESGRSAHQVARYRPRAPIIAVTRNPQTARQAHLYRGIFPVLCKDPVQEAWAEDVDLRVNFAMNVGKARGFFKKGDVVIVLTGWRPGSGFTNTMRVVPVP
# Experimental: as §3, §1
# [7] = final vitreous concentration 1 μM, 4 h (Figure 6a)
smiles,measurement,setting,value
Cn1c2cc([S+](C)[O-])ccc2c2cnn(Cc3ccccc3)c(=O)c21 (stereo not shown) [Compound 3],AC50,[1],47 ± 10 nM
same,Emax,[1],279 ± 16%
same,solubility at 24 h,[2],12.1 µM
same,AC50,[3],104 ± 32 nM
same,Emax,[3],280 ± 17%
Cc1ccc2c3cnn(Cc4ccccc4)c(=O)c3n(C)c2c1 [Compound 1],AC50,[1],23 ± 4 nM
same,Emax,[1],224 ± 9%
same,solubility at 24 h,[2],< 0.01 µM
same,AC50,[3],175 ± 64 nM
same,Emax,[3],219 ± 16%
Cc1cccc(Cn2ncc3c4cc(F)c(CN5CCCC5)cc4n(C)c3c2=O)n1 [Compound 18],solubility at 24 h,[4],858 µM
same,AC50,[1],64 ± 4 nM
same,Emax,[1],245 ± 5%
same,"PK activity increase, less than that observed with ML-265",[5]; [7],20–30%
same,AC50,[3],106 ± 27 nM
same,Emax,[3],257 ± 12%
Cc1ccc2c3cnn(Cc4cccc(N)c4)c(=O)c3n(C)c2c1 [Compound 5],AC50,[1],61 ± 12 nM
same,Emax,[1],249 ± 14%
same,solubility at 24 h,[2],12.7 µM
same,AC50,[3],132 ± 47 nM
same,Emax,[3],236 ± 16%
Cc1cccc(Cn2ncc3c4cc(F)c(CN5CCOCC5)cc4n(C)c3c2=O)n1 [Compound 16],solubility at 24 h,[4],397 µM
same,AC50,[1],65 ± 8 nM
same,Emax,[1],224 ± 8%
same,AC50,[3],162 ± 46 nM
same,Emax,[3],268 ± 15%
"Cn1c2cc([S+](C)[O-])sc2c2cnn(Cc3cccc(N)c3)c(=O)c21 (stereo not shown) [ML-265, reference compound]",Emax,[1],292 ± 21%
same,AC50,"[5]; increasing concentrations, retina 4 h, read-out: in vivo AC50",866 ± 176 nM
same,Emax,"[5]; rat, increasing concentrations, retina 4 h, normalized to DMSO, read-out: in vivo PK activity (maximum activation)",202 ± 8%
same,AC50,[3],108 ± 32 nM
same,Emax,[3],370 ± 21%
Cc1cccc(Cn2ncc3c4cc(F)c(CNCCO)cc4n(C)c3c2=O)n1 [Compound 17],solubility at 24 h,[4],1120 µM
same,AC50,[1],58 ± 5 nM
same,Emax,[1],213 ± 6%
same,AC50,[3],1620 ± 428 nM
same,Emax,[3],430 ± 33%
Cc1cccc(Cn2ncc3c4cc(F)c(CN(C)C)cc4n(C)c3c2=O)n1 [Compound 19],AC50,[1],83 ± 9 nM
same,Emax,[1],266 ± 9%
same,"PK activity increase, less than that observed with ML-265",[5]; [7],20–30%
same,activation of recombinant PKM1,[6],did not activate
same,AC50,[3],222 ± 81 nM
same,Emax,[3],297 ± 22%
Cn1c2cc(CN3CCNCC3)c(F)cc2c2cnn(Cc3ccccc3F)c(=O)c21 [Compound 21],solubility at 24 h,[4],334 µM
same,AC50,[1],66 ± 10 nM
same,Emax,[1],339 ± 16%
same,PK activation in rat retina compared with ML-265,[5]; [7],approximately a third of the retinal PK activation as that achieved with ML-265
same,AC50,[3],72 ± 24 nM
same,Emax,[3],299 ± 18%
Cn1c2cc(CNCCO)c(F)cc2c2cnn(Cc3ccccc3F)c(=O)c21 [Compound 20],solubility at 24 h,[4],462 µM
same,AC50,[1],62 ± 11 nM
same,Emax,[1],239 ± 12%
same,AC50,[3],93 ± 29 nM
same,Emax,[3],288 ± 17%
CSc1ccc2c3cnn(Cc4cccc(N)c4)c(=O)c3n(C)c2c1 [Compound 4],AC50,[1],48 ± 10 nM
same,Emax,[1],216 ± 12%
same,solubility at 24 h,[2],< 0.01 µM
same,AC50,[3],66 ± 19 nM
same,Emax,[3],256 ± 13%
